This note sets out measurements from PubChem BioAssay (NCI).

SMILES strings stand for the structures. Where “and” joins values, the source holds several entries; their conditions need not be identical. Equal entries are not always repeated.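 Interpolation was linear, between the two tested concentrations surrounding the appropriate level; five concentrations were tested over 48 hours in 96-well plates. GI50 is the concentration that inhibits growth by half. TGI: total growth inhibition.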

Some test systems named below: 786-0 renal; EKVX NSCLC; HCT-116 colon; HT29 colon; M14 melanoma; OVCAR-5 ovarian; OVCAR-8 ovarian; SW-620 colon; TK-10 renal; CAKI-1 renal.
Assay in all cases: inhibition of tumour cell growth, NCI panel, 48 h

Consider `O=C(O/N=C1/CCCC/C1=C\c1ccccc1)c1ccccc1`, for which the TGI in the assay on 786-0 renal, in the assay with EKVX NSCLC, in the assay on HCT-116 colon, in the assay on HT29 colon, in the assay with M14 melanoma and in the assay on OVCAR-5 ovarian was above 100 µM each time. The TGI in the assay with OVCAR-8 ovarian, in the assay with SW-620 colon and in the assay on TK-10 renal was above 100 µM each time.
Turning to `O=Cc1cc2c(cc1-c1c(C=O)ccc3c1OCO3)OCO2`, the TGI with 786-0 renal, in the assay on CAKI-1 renal, with HCT-116 colon, in the assay with HT29 colon, in the assay on M14 melanoma and with OVCAR-8 ovarian was above 10 µM each time. Further, the TGI in the assay on SW-620 colon and with TK-10 renal was above 10 µM in each case.
`CC/C(=C(/c1ccc(OCCN(C)C)cc1)c1ccc(OC(=O)CCCCC(=O)c2c(C)[nH]c(/C=C3\N=C(c4ccc[nH]4)C=C3OC)c2C)cc1)c1ccccc1`: the GI50 in the assay with 786-0 renal was 4.77 µM; in the assay with CAKI-1 renal it was 6.27 µM; in the assay on HCT-116 colon, 3.55 µM; in the assay on HT29 colon it was 2.99 µM; in the assay with M14 melanoma it was 1.84 µM; in the assay on OVCAR-5 ovarian it was 10.6 µM. Besides, the GI50 in the assay on OVCAR-8 ovarian was 6.55 µM; in the assay with SW-620 colon, 3.16 µM; in the assay on TK-10 renal it was 12.8 µM. In addition, the TGI in the assay with 786-0 renal is 19.2 µM; in the assay with CAKI-1 renal it was 36.1 µM; in the assay on HCT-116 colon it was 13.9 µM; in the assay on HT29 colon, 14.7 µM; with M14 melanoma it was 4 µM; with OVCAR-5 ovarian it was 22.5 µM. The TGI is 19.9 µM in the assay with OVCAR-8 ovarian, 11.4 µM in the assay with SW-620 colon and 25.4 µM in the assay with TK-10 renal.
In the case of `CC(C)(C)OC(=O)NCC(=O)OCc1ccccc1`, the TGI in the assay with 786-0 renal, with HCT-116 colon, in the assay on HT29 colon, in the assay with M14 melanoma, in the assay on OVCAR-5 ovarian and with OVCAR-8 ovarian was above 100 µM each time. For the same molecule, the TGI in the assay with SW-620 colon and in the assay with TK-10 renal was above 100 µM throughout.
On to `COC(=O)c1cc2c(cc1O)[C@@H](NC(C)=O)CCc1cc(OC)c(OC)c(OC)c1-2`, for which the GI50 with 786-0 renal is 0.0416 µM; with CAKI-1 renal it was 0.0214 µM; with HCT-116 colon it was 0.0164 µM; in the assay with HT29 colon, 0.0206 µM; in the assay with M14 melanoma, 0.0293 µM; in the assay on OVCAR-8 ovarian it was 0.0404 µM. Also, the GI50 with SW-620 colon was 0.0235 µM. Further, the TGI in the assay with 786-0 renal is above 100 µM; with CAKI-1 renal, above 100 µM; in the assay on HT29 colon it was 0.201 µM and 0.0554 µM; in the assay on M14 melanoma, above 100 µM; with SW-620 colon, above 100 µM.
In the case of `O=C1NC(=Nc2ccccc2)S/C1=C\c1ccc2ncccc2c1`, the GI50 with 786-0 renal is above 25 µM; in the assay with CAKI-1 renal it was above 25 µM; in the assay on HCT-116 colon it was 1.14 µM; in the assay with HT29 colon it was above 25 µM; in the assay with M14 melanoma, above 25 µM; with OVCAR-5 ovarian, above 25 µM. Besides, the results for the GI50 in the assay on OVCAR-8 ovarian, in the assay on SW-620 colon and in the assay on TK-10 renal were above 25 µM, 0.965 µM and above 25 µM, respectively. In addition, the TGI in the assay with 786-0 renal, in the assay with CAKI-1 renal, in the assay with HCT-116 colon, with HT29 colon, with M14 melanoma and in the assay on OVCAR-5 ovarian was above 25 µM each time. Also, the TGI in the assay on OVCAR-8 ovarian, in the assay on SW-620 colon and with TK-10 renal was above 25 µM in each case.
`O=C1c2ccccc2C(=O)C1(Cl)C1(S(=O)(=O)O)c2ccccc2-c2ccccc21`: the TGI with 786-0 renal, with CAKI-1 renal, with HCT-116 colon, with HT29 colon, in the assay with M14 melanoma and in the assay with OVCAR-5 ovarian was above 100 µM each time. Besides, the TGI in the assay on OVCAR-8 ovarian, in the assay with SW-620 colon and in the assay on TK-10 renal was above 100 µM throughout.
On to `CCOC(=O)Oc1c(OC)cc(C(=O)NC2CCc3cc(OC)c(OC)c(OC)c3-c3ccc(SC)c(=O)cc32)cc1OC` (centres undefined), for which the GI50 was 0.023 µM in the assay on 786-0 renal; below 0.007 µM with HCT-116 colon; 0.0166 µM in the assay with M14 melanoma; above 70 µM in the assay with OVCAR-5 ovarian; 0.0155 µM in the assay with OVCAR-8 ovarian; below 0.007 µM in the assay with SW-620 colon. For the same molecule, the GI50 in the assay on TK-10 renal is 0.163 µM. Further, the TGI in the assay on 786-0 renal was 13 µM; in the assay on EKVX NSCLC it was 37.9 µM; in the assay on HCT-116 colon, 0.311 µM and 0.0975 µM; in the assay with HT29 colon, 0.489 µM; in the assay with M14 melanoma it was 10.7 µM; in the assay with OVCAR-5 ovarian it was above 70 µM. Also, the TGI was 10.9 µM with OVCAR-8 ovarian, above 70 µM in the assay on SW-620 colon and above 70 µM in the assay on TK-10 renal.
For the molecule `CNCCCn1cc(C2=C(c3cn(C)c4ccccc34)C(=O)NC2=O)c2ccccc21`, the GI50 was 4.77 µM with 786-0 renal; 4.13 µM in the assay on CAKI-1 renal; 3.17 µM in the assay on HCT-116 colon; 1.14 µM in the assay with HT29 colon; 4.17 µM in the assay with M14 melanoma; 7.65 µM in the assay on OVCAR-5 ovarian. In addition, the GI50 in the assay on OVCAR-8 ovarian was 4.99 µM; in the assay on SW-620 colon, 3.72 µM; in the assay with TK-10 renal, 4.16 µM. The TGI with 786-0 renal was 11.3 µM; in the assay on CAKI-1 renal it was 13.2 µM; in the assay on HCT-116 colon, 12.3 µM; in the assay with HT29 colon it was 12.2 µM; in the assay on M14 melanoma, 7.98 µM; in the assay on OVCAR-5 ovarian, 20.7 µM. Moreover, the TGI in the assay with OVCAR-8 ovarian was 12.6 µM; with SW-620 colon it was 8.13 µM; with TK-10 renal, 10.7 µM.
`CCOc1nc(-c2ccccc2)cc2c(O)c(-c3nnco3)[nH]c(=O)c12`: the GI50 is 6.17 µM in the assay with 786-0 renal; 4.15 µM with CAKI-1 renal; 6.07 µM with HCT-116 colon; above 100 µM with HT29 colon; 7.12 µM with M14 melanoma; above 82.3 µM in the assay on OVCAR-5 ovarian. Moreover, the values for the GI50 in the assay with OVCAR-8 ovarian, with SW-620 colon and in the assay with TK-10 renal were 4.24 µM, 3.6 µM and 4.59 µM, respectively. Moreover, the TGI in the assay on 786-0 renal was 31.9 µM; with CAKI-1 renal it was above 100 µM; in the assay with HCT-116 colon, above 100 µM; in the assay on HT29 colon, above 100 µM; in the assay on M14 melanoma it was above 100 µM; with OVCAR-5 ovarian it was above 100 µM. Moreover, the figures for the TGI with OVCAR-8 ovarian, in the assay on SW-620 colon and with TK-10 renal were above 100 µM, above 100 µM and 35.2 µM, respectively.
